Data on twelve compounds can be found in patent publication US20170275275A1, “BENZENESULFONAMIDES USEFUL AS SODIUM CHANNEL INHIBITORS” (PFIZER INC., priority 2014, published 2017).

In brackets after ≈: the same amount, converted by molar mass. Counter-ions that a name gives are not always drawn.

Series [1] addresses T1, Nav1.7 (or SCN9A) channel (Homo sapiens, UniProt Q15858).
T1 construct: expressed in transfected cells
Nature of the series: Nav1.7 (hSCN9A) channel block, PatchXpress (PX) whole-cell electrophysiology in stably transfected HEK cells. The class given is cell-based. As to conditions: for IC50: estimated IC50 from single point electrophysiology data, PatchXpress platform, HEK cells expressing hSCN9A, clamped at V1/2 of inactivation, read-out: Nav1.7 EIC50. Here is the method:
The ability of the compounds of formula (I) to block the Nav1.7 (or SCN9A) channel was measured using the assay described below.
Human Embryonic Kidney (HEK) cells were transfected with an hSCN9A construct using lipofectamine reagent (Invitrogen), using standard techniques. Cells stably expressing the hSCN9A constructs were identified by their resistance to G-418 (400 μg/ml). Clones were screened for expression using the whole-cell voltage-clamp technique.
HEK cells stably transfected with hSCN9A were maintained in DMEM medium supplemented with 10% heat-inactivated fetal bovine serum and 400 μg/ml G-418 in an incubator at 37° C. with a humidified atmosphere of 10% CO2. For HTS, cells were harvested from flasks by trypsinization and replated in an appropriate multi-well plate (typically 96 or 384 wells/plate) such that confluence would be achieved within 24 hours of plating. Cells were typically used for electrophysiological experiments within 24 to 72 hours after plating.
For conventional whole-cell voltage clamp experiments cells were removed from the culture flask by brief trypsinization and re-plated at low density onto glass cover slips. Cover slips containing HEK cells expressing hSCN9A were placed in a bath on the stage of an inverted microscope and perfused (approximately 1 ml/minutes) with extracellular solution of the following composition: 138 mM NaCl, 2 mM CaCl2, 5.4 mM KCl, 1 mM MgCl2, 10 mM glucose, and 10 mM HEPES, pH 7.4, with NaOH. […] The osmolarity of the extracellular and intracellular solutions was 300 mOsm/kg and 295 mOsm/kg, respectively. All recordings were made at room temperature (22-24° C.) using AXOPATCH 200B amplifiers and PCLAMP software (Axon Instruments, Burlingame, Calif.). hSCN9A currents in HEK cells were measured using the whole-cell configuration of the patch-clamp technique (Hamill et al., 1981). Uncompensated series resistance was typically 2 to 5 mega ohms and >85% series resistance compensation was routinely achieved. […] Current records were acquired at 20 to 50 KHz and filtered at 5 to 10 KHz.
HEK cells stably transfected with hSCN9A were viewed under Hoffman contrast optics and placed in front of an array of flow pipes emitting either control or compound-containing extracellular solutions.
The voltage-dependence of inactivation was determined by applying a series of depolarizing prepulses (8 sec long in 10 mV increments) from a negative holding potential. The voltage was then immediately stepped to 0 mV to assess the magnitude of the sodium current. Currents elicited at 0 mV were plotted as a function of prepulse potential to allow estimation of the voltage at which 50% of the channels were inactivated (midpoint of inactivation or V1/2). Compounds were tested for their ability to inhibit hSCN9A sodium channels by activating the channel with a 20 msec voltage step […] to 0 mV following an 8 second conditioning prepulse to the empirically determined V1/2. Compound effect (% inhibition) was determined by difference in current amplitude before and after application of test compounds. For ease of comparison, “estimated IC-50” (EIC50) values were calculated from single point electrophysiology data by the following equation, (tested concentration, nM)×(100-% inhibition/% inhibition). Inhibition values <20% and >80% were excluded from the calculation.
Electrophysiological assays were conducted with PatchXpress 7000 hardware and associated software (Molecular Devices Corp). All assay buffers and solutions were identical to those used in conventional whole-cell voltage clamp experiments described above. hSCN9A cells were grown as above to 50%-80% confluency and harvested by trypsinization. Trypsinized cells were washed and resuspended in extracellular buffer at a concentration of 1×10^6 cells/ml. The onboard liquid handling facility of the PatchXpress was used for dispensing cells and application of test compounds.

The nature of series [2]: Aqueous solubility, shake-flask method. The class given is physicochemical. The note with it: aqueous buffer, thermodynamic from solid. The protocol:
Aqueous solubility data were generated via a “shake-flask” method where an excess of compound was added to a buffer (typically phosphate buffered saline at pH 7.4) and shaken for a period of 18 hours at room temperature. After this time any excess solid was removed by double centrifugation to obtain a saturated aqueous solution. The amount of compound solubilised was quantified by HPLC-UV or LC-MS against a standard calibration curve.
The solubility data generated are set out below. Where a greater than figure is quoted, all available compound was solubilised and saturation was not achieved in the conditions employed.

[3] abbreviates: pH 7.5, shaken 18 hours at room temperature.
Where [4] appears, read: pH 7.4, shaken 18 hours at room temperature.

T1 sequence (Q15858 whole entry): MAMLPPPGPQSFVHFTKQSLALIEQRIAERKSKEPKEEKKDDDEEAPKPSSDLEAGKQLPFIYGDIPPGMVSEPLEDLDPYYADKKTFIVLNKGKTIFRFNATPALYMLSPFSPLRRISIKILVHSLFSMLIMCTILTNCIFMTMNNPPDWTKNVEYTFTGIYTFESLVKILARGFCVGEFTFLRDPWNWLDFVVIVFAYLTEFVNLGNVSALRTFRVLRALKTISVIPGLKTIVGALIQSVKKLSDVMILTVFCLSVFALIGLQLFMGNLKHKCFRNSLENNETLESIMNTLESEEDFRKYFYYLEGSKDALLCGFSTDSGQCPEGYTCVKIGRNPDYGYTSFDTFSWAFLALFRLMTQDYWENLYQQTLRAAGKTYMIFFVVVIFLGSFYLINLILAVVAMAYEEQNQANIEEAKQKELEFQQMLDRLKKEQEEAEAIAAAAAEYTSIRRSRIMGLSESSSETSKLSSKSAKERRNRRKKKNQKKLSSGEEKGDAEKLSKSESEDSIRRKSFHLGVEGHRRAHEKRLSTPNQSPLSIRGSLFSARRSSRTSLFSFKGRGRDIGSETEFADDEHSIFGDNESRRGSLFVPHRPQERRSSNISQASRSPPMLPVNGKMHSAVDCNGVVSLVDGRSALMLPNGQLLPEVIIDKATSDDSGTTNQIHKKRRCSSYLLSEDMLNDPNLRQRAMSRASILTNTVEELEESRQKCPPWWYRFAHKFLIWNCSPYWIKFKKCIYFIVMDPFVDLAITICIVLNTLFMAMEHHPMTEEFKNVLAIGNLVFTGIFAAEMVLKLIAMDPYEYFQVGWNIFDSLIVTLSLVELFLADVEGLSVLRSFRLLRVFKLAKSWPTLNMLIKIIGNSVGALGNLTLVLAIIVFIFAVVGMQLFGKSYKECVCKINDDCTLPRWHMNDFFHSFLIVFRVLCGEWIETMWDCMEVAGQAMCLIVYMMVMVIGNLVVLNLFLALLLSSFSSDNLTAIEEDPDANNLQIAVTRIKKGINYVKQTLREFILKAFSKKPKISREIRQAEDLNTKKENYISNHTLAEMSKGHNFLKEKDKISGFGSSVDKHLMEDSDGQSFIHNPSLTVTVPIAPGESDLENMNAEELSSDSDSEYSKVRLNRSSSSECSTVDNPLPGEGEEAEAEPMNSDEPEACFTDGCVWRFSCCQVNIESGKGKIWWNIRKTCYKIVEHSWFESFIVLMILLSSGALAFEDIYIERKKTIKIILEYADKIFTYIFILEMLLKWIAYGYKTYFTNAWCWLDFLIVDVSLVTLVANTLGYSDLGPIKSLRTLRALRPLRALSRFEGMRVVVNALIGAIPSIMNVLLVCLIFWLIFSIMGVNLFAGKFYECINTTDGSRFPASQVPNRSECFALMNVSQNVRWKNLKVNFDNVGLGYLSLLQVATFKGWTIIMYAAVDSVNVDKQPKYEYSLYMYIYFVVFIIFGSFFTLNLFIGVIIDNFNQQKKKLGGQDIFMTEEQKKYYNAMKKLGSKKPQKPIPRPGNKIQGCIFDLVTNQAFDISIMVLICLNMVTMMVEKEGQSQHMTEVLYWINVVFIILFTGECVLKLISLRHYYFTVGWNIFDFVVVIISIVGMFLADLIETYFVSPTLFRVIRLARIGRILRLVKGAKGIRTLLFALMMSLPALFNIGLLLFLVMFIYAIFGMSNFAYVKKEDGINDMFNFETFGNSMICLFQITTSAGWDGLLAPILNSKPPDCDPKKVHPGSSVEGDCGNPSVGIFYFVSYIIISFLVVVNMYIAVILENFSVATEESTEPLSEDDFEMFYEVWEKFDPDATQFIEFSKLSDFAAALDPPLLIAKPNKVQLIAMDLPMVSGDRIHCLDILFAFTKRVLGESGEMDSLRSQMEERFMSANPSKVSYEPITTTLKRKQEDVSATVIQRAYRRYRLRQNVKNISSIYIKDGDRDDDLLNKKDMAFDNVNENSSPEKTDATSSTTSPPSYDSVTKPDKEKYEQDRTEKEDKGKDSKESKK

A word on the solubility: it is the concentration that dissolves in the medium under given conditions. With `O=S(=O)(Nc1nncs1)c1cc(Cl)c(Oc2ccc(-c3cccc(C(F)(F)F)c3)cc2-c2ccnc(CNCCC3CCNCC3)c2)cc1F` [Example 6, 5-Chloro-2-fluoro-4-{[3-(2-{[(2-piperidin-4-ylethyl)amino]methyl}pyridin-4-yl)-3′-(trifluoromethyl)biphenyl-4-yl]oxy}-N-1,3,4-thiadiazol-2-ylbenzenesulfonamide bis-formate salt], in series [1], the IC50 is 2.1 nM. Further, the solubility at 18 h in series [2] (pH 5.0, shaken 18 hours at room temperature) is over 2300 µg/mL; in series [2] (setting [3]), under 500 µg/mL.
Consider `NCc1cc(-c2cc(-c3cccc(C(F)(F)F)c3)ccc2Oc2cc(F)c(S(=O)(=O)Nc3nncs3)cc2Cl)ccn1` [Example 7, 4-({3-[2-(Aminomethyl)pyridin-4-yl]-3′-(trifluoromethyl)biphenyl-4-yl}oxy)-5-chloro-2-fluoro-N-1,3,4-thiadiazol-2-ylbenzenesulfonamide bis-formate salt], for which the IC50 in series [1] is 1.5 nM. This compound registered a solubility at 18 h in series [2] (pH 7.2, shaken 18 hours at room temperature) of 0.5 µg/mL.
`COCCOCCOCCOCCOCCOCCOCCOCCOCCOCCOCCOCCNCc1cc(-c2cc(-c3cccc(C(F)(F)F)c3)ccc2Oc2ccc(S(=O)(=O)Nc3ncns3)cc2C#N)ccn1` [Example 12, 3-cyano-4-({3-[2-(2,5,8,11,14,17,20,23,26,29,32,35-dodecaoxa-38-azanonatriacontan-39-yl)pyridin-4-yl]-3′-(trifluoromethyl)biphenyl-4-yl}oxy)-N-(1,2,4-thiadiazol-5-yl)benzenesulfonamide]: the IC50 in series [1] was 2.3 nM. In series [2] (setting [3]), this compound displayed a solubility at 18 h of 612 µg/mL (≈ 532 µM).
In the same order, the values of `COCCOCCOCCOCCNCc1cc(-c2cc(-c3cccc(C(F)(F)F)c3)ccc2Oc2ccc(S(=O)(=O)Nc3ncns3)cc2C#N)ccn1` [Example 15, 4-((3-(2-(5,8,11,14-tetraoxa-2-azapentadecyl)pyridin-4-yl)-3′-(trifluoromethyl)-[1,1′-biphenyl]-4-yl)oxy)-3-cyano-N-(1,2,4-thiadiazol-5-yl)benzenesulfonamide] are 1 nM and 110 µg/mL (≈ 138 µM).
As a reminder, the inhibition is the change of the read-out against control, counted positive when it falls. For the compound `COCCOCCOCCOCCOCCOCCOCCOCCOCCOCCOCCOCCC(=O)N1CCC(CCNCc2cc(-c3cc(-c4cccc(C(F)(F)F)c4)ccc3Oc3ccc(S(=O)(=O)Nc4ncns4)cc3C#N)ccn2)CC1` [Example 17, 4-((3-(2-(((2-(1-(2,5,8,11,14,17,20,23,26,29,32,35-dodecaoxaoctatriacontan-38-oyl)piperidin-4-yl)ethyl)amino)methyl)pyridin-4-yl)-3′-(trifluoromethyl)-[1,1′-biphenyl]-4-yl)oxy)-3-cyano-N-(1,2,4-thiadiazol-5-yl)benzenesulfonamide], the inhibition at 0.01 µM in series [1] (HEK293, Nav1.7, PatchXpress, 10 nM, read-out: % inhibition at 10 nM dose) is 87.4%. In series [1], the IC50 was under 10 nM. In addition, in series [2] (setting [4]), the solubility at 18 h is over 2300 µg/mL.
Take `N#Cc1cc(S(=O)(=O)Nc2ncns2)ccc1Oc1ccc(-c2cccc(C(F)(F)F)c2)cc1-c1ccnc(CNCCC2CCNCC2)c1` [Example 18b, 3-Cyano-4-{[3-(2-{[(2-piperidin-4-ylethyl)amino]methyl}pyridin-4-yl)-3′-(trifluoromethyl)biphenyl-4-yl]oxy}-N-1,2,4-thiadiazol-5-ylbenzenesulfonamide trihydrochloride salt]: the solubility at 18 h in series [2] (setting [4]) was over 10000 µg/mL.
In the case of `COCCOCCOCCOCCOCCOCCOCCOCCOCCOCCOCCOCCC(=O)NCc1cc(-c2cc(-c3cccc(C(F)(F)F)c3)ccc2Oc2ccc(S(=O)(=O)Nc3ncns3)cc2C#N)ccn1` [Example 19, N-((4-(4-(4-(N-(1,2,4-thiadiazol-5-yl)sulfamoyl)-2-cyanophenoxy)-3′-(trifluoromethyl)-[1,1′-biphenyl]-3-yl)pyridin-2-yl)methyl)-2,5,8,11,14,17,20,23,26,29,32,35-dodecaoxaoctatriacontan-38-amide], the IC50 in series [1] is 17.5 nM. In series [2] (setting [3]), the solubility at 18 h was over 3 µg/mL.
As to `COCCOCCOCCOCCOCCOCCOCCOCCOCCOCCOCCOCCC(=O)NCc1cc(-c2cc(-c3cccc(C(F)(F)F)c3)ccc2Oc2cc(F)c(S(=O)(=O)Nc3cscn3)cc2Cl)ccn1` [Example 28, N-[(4-{4-[2-chloro-5-fluoro-4-(1,3-thiazol-4-ylsulfamoyl)phenoxy]-3′-(trifluoromethyl)biphenyl-3-yl}pyridin-2-yl)methyl]-2,5,8,11,14,17,20,23,26,29,32,35-dodecaoxaoctatriacontan-38-amide], the IC50 in series [1] is 241 nM.
On the same count and under the same terms, in the case of `COCCOCCOCCOCCOCCOCCOCCOCCOCCOCCOCCOCCC(=O)N1CCC(CCNCc2cc(-c3cc(-c4cccc(C(F)(F)F)c4)ccc3Oc3cc(F)c(S(=O)(=O)Nc4cscn4)cc3Cl)ccn2)CC1` [Example 30, 5-chloro-2-fluoro-4-{[3-{2-[({2-[1-(38-oxo-2,5,8,11,14,17,20,23,26,29,32,35-dodecaoxaoctatriacontan-38-yl)piperidin-4-yl]ethyl}amino)methyl]pyridin-4-yl}-3′-(trifluoromethyl)biphenyl-4-yl]oxy}-N-(1,3-thiazol-4-yl)benzenesulfonamide hydrochloride salt] it was 23.9 nM; in that of `COCCOCCOCCOCCOCCOCCOCCOCCOCCOCCOCCOCCC(=O)N1CCC(CCNCc2cccc(-c3cc(-c4ccccc4)ccc3Oc3ccc(S(=O)(=O)Nc4ncns4)cc3C#N)c2)CC1` [Example 31, 3-cyano-4-({3″-[({2-[1-(38-oxo-2,5,8,11,14,17,20,23,26,29,32,35-dodecaoxaoctatriacontan-38-yl)piperidin-4-yl]ethyl}amino)methyl]-1,1′:3′,1″-terphenyl-4′-yl}oxy)-N-(1,2,4-thiadiazol-5-yl)benzenesulfonamide], 9.8 nM.
For `COCCOCCOCCOCCOCCOCCOCCOCCOCCOCCOCCOCCC(=O)N1CCN(c2cc(-c3cc(-c4ccc(C(F)(F)F)cc4)ccc3Oc3cc(F)c(S(=O)(=O)Nc4nncs4)cc3Cl)ccn2)CC1` [Example 32, 5-chloro-2-fluoro-4-{[3-{2-[4-(38-oxo-2,5,8,11,14,17,20,23,26,29,32,35-dodecaoxaoctatriacontan-38-yl)piperazin-1-yl]pyridin-4-yl}-4′-(trifluoromethyl)biphenyl-4-yl]oxy}-N-(1,3,4-thiadiazol-2-yl)benzenesulfonamide], the IC50 in series [1] was 16 nM.
On the same count and under the same terms, in the case of `COCCOCCOCCOCCOCCOCCOCCOCCOCCOCCOCCOCCC(=O)N1CCC(CCNCc2cc(-c3cc(-c4cccc(C(F)(F)F)c4)ccc3Oc3cc(F)c(S(=O)(=O)Nc4nncs4)cc3Cl)ccn2)CC1` [Example 33, 5-chloro-2-fluoro-4-{[3-{2-[({2-[1-(38-oxo-2,5,8,11,14,17,20,23,26,29,32,35-dodecaoxaoctatriacontan-38-yl)piperidin-4-yl]ethyl}amino)methyl]pyridin-4-yl}-3′-(trifluoromethyl)biphenyl-4-yl]oxy}-N-(1,3,4-thiadiazol-2-yl)benzenesulfonamide formate salt] it was 1.7 nM.
